Reference: ChEMBL document CHEMBL1145198, “Checkpoint kinase inhibitors: SAR and radioprotective properties of a series of 2-arylbenzimidazoles” (J Med Chem, 2005)

Target: Serine/threonine-protein kinase Chk2 (Homo sapiens, UniProt O96017)
Assay: Inhibition of recombinant human Chk2 kinase

Sequence of Serine/threonine-protein kinase Chk2 (O96017 whole entry): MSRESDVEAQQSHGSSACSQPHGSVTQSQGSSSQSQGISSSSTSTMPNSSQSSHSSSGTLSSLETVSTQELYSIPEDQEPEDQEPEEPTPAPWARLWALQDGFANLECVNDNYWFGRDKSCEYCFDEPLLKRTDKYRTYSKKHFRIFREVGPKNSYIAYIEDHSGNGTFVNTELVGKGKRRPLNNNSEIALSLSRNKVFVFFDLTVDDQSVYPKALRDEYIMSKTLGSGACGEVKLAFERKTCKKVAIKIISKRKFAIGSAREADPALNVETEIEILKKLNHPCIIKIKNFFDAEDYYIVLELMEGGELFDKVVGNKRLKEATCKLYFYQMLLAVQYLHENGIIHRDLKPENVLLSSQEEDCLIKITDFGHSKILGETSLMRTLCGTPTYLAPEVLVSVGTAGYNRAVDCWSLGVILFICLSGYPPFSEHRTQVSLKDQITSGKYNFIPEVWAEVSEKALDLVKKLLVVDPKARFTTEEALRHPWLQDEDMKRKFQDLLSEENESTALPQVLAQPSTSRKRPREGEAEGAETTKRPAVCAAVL

IC50 [µM] | SMILES
> 10 | CN(C)C(=O)c1ccc2[nH]c(-c3ccc(Oc4ccccc4)cc3)nc2c1
> 10 | NC(=O)c1ccc2nc(-c3ccc(C(=O)Nc4ccc(Cl)c(Cl)c4)cc3)[nH]c2c1
